Assays:
Test in all cases: relative viability (nuclei count vs DMSO), 5 days (fraction); higher = more cells survive
[1] = compound: COc1cc(-c2nn([C@H]3CC[C@H](N4CCN(C(C)=O)CC4)CC3)c3ncnc(N)c23)ccc1NC(=O)c1cc2ccccc2n1C + CS(=O)(=O)N1CCN(Cc2cc3nc(-c4cccc5[nH]ncc45)nc(N4CCOCC4)c3s2)CC1 [Pictilisib] (partner 1 µM)
Outline: (§1)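 Medians of duplicate plates are given as relative viability. That measure is the nuclei count in treated wells divided by the count in vehicle wells. Counts were taken on 4× images of lung cancer cell lines in 1536-well plates, 5 days after pin-tool dosing the day after seeding with one drug alone or a fixed anchor-drug dose plus five library-drug doses (not always all listed) in √10 steps.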

[2] = compound: COc1cc(-c2nn([C@H]3CC[C@H](N4CCN(C(C)=O)CC4)CC3)c3ncnc(N)c23)ccc1NC(=O)c1cc2ccccc2n1C + O=C(CCCCCCC(=O)Nc1ccccc1)NO [Vorinostat] (partner 1 µM)
Outline: as §1

[3] = compound: CO[C@@H]1[C@H](N(C)C(=O)c2ccccc2)C[C@H]2O[C@]1(C)n1c3ccccc3c3c4c(c5c6ccccc6n2c5c31)C(=O)NC4 [Midostaurin] + N=C(N)NC(=N)NCCc1ccccc1 [Phenformin] (partner 250 µM)
Outline: as §1

[4] = compound: COc1cc(-c2nn([C@H]3CC[C@H](N4CCN(C(C)=O)CC4)CC3)c3ncnc(N)c23)ccc1NC(=O)c1cc2ccccc2n1C + Cc1cc(Nc2cc(N3CCN(C)CC3)nc(Sc3ccc(NC(=O)C4CC4)cc3)n2)n[nH]1 [Tozasertib] (partner 0.1 µM)
Outline: as §1

[5] = compound: COc1cc(-c2nn([C@H]3CC[C@H](N4CCN(C(C)=O)CC4)CC3)c3ncnc(N)c23)ccc1NC(=O)c1cc2ccccc2n1C + CC(=O)Nc1cccc(-n2c(=O)n(C3CC3)c(=O)c3c(Nc4ccc(I)cc4F)n(C)c(=O)c(C)c32)c1 [Trametinib] (partner 0.02 µM)
Outline: as §1

Cell Line	relative viability ([1]; first compound 0.0128 µM)	relative viability ([1]; first compound 0.04048 µM)	relative viability ([1]; first compound 0.128 µM)	relative viability ([1]; first compound 1.28 µM)	relative viability ([2]; first compound 0.0128 µM)	relative viability ([2]; first compound 0.04048 µM)	relative viability ([2]; first compound 0.128 µM)	relative viability ([2]; first compound 1.28 µM)	relative viability ([3]; first compound 0.01 µM)	relative viability ([3]; first compound 0.03162 µM)	relative viability ([3]; first compound 0.1 µM)	relative viability ([3]; first compound 0.3162 µM)	relative viability ([4]; first compound 0.0128 µM)	relative viability ([4]; first compound 0.04048 µM)	relative viability ([4]; first compound 0.128 µM)	relative viability ([4]; first compound 1.28 µM)	relative viability ([5]; first compound 0.0128 µM)	relative viability ([5]; first compound 0.04048 µM)	relative viability ([5]; first compound 0.128 µM)	relative viability ([5]; first compound 1.28 µM)
ChaGo-K-1	0.66	0.669	0.587	0.644	0.802	0.768	0.679	0.555	0.439	0.533	0.522	0.529	0.215	0.218	0.211	0.195	0.872	0.904	0.722	0.68
EBC-1	0.407	0.447	0.416	0.393	–	–	–	–	–	–	–	–	–	–	–	–	–	–	–	–
EKVX	0.458	0.475	0.401	0.245	0.966	0.801	0.674	0.382	0.232	0.239	0.223	0.25	0.398	0.379	0.332	0.19	0.406	0.236	0.305	0.236
EMC-BAC-2	0.547	0.501	0.504	0.494	0.466	0.602	0.418	0.504	0.508	0.508	0.458	0.283	0.276	0.377	0.331	0.273	0.901	0.537	0.834	1.02
EPLC-272H	0.369	0.258	0.29	0.311	0.357	0.345	0.62	0.457	0.31	–	0.282	0.303	0.38	–	0.235	0.19	0.331	0.205	0.278	0.24
H3255	0.523	0.408	0.49	0.278	1.01	0.725	0.824	0.708	0.376	0.34	0.311	0.34	0.829	0.591	0.571	0.581	0.611	0.44	0.613	0.499
HARA	0.454	0.395	0.349	0.362	0.698	0.372	0.421	0.325	0.516	0.466	0.467	0.44	0.11	0.0748	0.101	0.0842	0.617	0.273	0.56	0.418
HCC-15	0.854	0.369	0.657	0.647	0.954	0.752	0.85	0.698	0.47	0.459	0.472	0.44	0.332	0.473	0.331	0.247	0.421	0.269	0.394	0.294
HCC-44	0.675	0.67	0.542	0.542	1.24	1.1	1.12	1.18	0.157	0.251	0.167	0.201	0.707	1.29	0.796	0.819	1.19	0.716	1.07	1.03

Reference: the supplement of paper PMC10307832
